Results as given in patent publication US20240116985A1, “STAPLED PEPTIDES AND METHODS THEREOF” (priority 2020, published 2024).

Molecular target: T1, full-length beta-Catenin (Uniprot ID P35222) (Homo sapiens, UniProt P35222)
T1 construct: 10 nM full-length beta-Catenin (Uniprot ID P35222)
T1 sequence (P35222 1-781): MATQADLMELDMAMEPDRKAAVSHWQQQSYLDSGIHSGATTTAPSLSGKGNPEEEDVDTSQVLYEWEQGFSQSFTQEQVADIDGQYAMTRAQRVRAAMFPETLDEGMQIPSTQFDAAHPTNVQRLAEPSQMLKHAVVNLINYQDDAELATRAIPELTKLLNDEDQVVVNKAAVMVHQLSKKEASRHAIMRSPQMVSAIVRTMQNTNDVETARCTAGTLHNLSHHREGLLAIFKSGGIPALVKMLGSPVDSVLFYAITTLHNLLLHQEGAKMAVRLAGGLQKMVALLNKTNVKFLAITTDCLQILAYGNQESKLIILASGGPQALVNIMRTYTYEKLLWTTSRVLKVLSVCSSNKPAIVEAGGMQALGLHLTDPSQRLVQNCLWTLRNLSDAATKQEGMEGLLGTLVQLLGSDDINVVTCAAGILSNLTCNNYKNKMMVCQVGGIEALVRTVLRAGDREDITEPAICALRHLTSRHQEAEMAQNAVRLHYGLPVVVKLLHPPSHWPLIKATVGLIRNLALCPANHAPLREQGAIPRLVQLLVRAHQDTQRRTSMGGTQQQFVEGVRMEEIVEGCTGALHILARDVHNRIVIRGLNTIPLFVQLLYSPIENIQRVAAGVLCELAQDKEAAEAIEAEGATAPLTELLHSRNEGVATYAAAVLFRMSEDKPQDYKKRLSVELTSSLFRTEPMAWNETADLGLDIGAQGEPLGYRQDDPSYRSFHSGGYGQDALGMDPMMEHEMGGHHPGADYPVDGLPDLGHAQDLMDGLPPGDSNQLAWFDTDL
Test: Fluorescence polarization IC50 (beta-catenin / 5FAM-TCF4 10-53 competition)
Assay type: binding
Settings: fluorescence polarization; read-out: beta-Catenin FP IC50

Compared with CC(C)C[C@H](NC(=O)[C@]12CCN(C1)C(=O)OCCCC=CCCCC1(CCCC=CCCC(=O)N3CCC[C@@]3(C)C(=O)N[C@@H](CC(=O)O)C(=O)N1)C(=O)N[C@@H](C)C(=O)N[C@@H](CC(=O)O)C(=O)N[C@@H](Cc1cccc(C(=O)O)c1)C(=O)N[C@@H](C)C(=O)N[C@@H](C)C(=O)N[C@@H](Cc1ccccc1)C(=O)N2)C(=O)N[C@@H](Cc1ccsc1)C(=O)N[C@@H](Cc1csc2ccccc12)C(=O)N[C@@H](CCC(N)=O)C(N)=O (stereo partly drawn) [I-2603, 4pentenyl-MePro-Asp-B5-Ala-Asp-3COOHF-Ala-Ala-Phe-PyrS2-Leu-3Thi-BztA-Gln-NH2], CC(C)C[C@H](NC(=O)[C@]12CCN(C1)C(=O)OCCCC=CCCCC1(CCCC=CCCCC(=O)N3CCC[C@@]3(C)C(=O)N[C@@H](CC(=O)O)C(=O)N1)C(=O)N[C@@H](C)C(=O)N[C@@H](CC(=O)O)C(=O)N[C@@H](Cc1cccc(C(=O)O)c1)C(=O)N[C@@H](C)C(=O)N[C@@H](C)C(=O)N[C@@H](Cc1ccccc1)C(=O)N2)C(=O)N[C@@H](Cc1ccsc1)C(=O)N[C@@H](Cc1csc2ccccc12)C(=O)N[C@@H](CCC(N)=O)C(N)=O (stereo partly drawn) [I-2602, 5hexenyl-MePro-Asp-B5-Ala-Asp-3COOHF-Ala-Ala-Phe-PyrS2-Leu-3Thi-BztA-Gln-NH2] is 11-fold higher in IC50: 767 nM for the first, 8220 nM for the second.

CC(=O)N1CCC[C@]12CC=CCCCC1(CCCC=CCCCOC(=O)N3CC[C@@](C(=O)N[C@@H](Cc4ccsc4)C(=O)N[C@@H](Cc4csc5ccccc45)C(=O)N[C@@H](CCC(N)=O)C(N)=O)(C3)NC(=O)[C@H](CC(N)=O)NC(=O)[C@H](Cc3ccccc3)NC(=O)[C@H](C)NC(=O)[C@H](C)NC(=O)[C@H]([C@@H](C)O)NC(=O)[C@H](CC(N)=O)NC1=O)NC(=O)[C@H](CC1CCCCC1)NC(=O)[C@H](CC(=O)O)NC2=O (stereo partly drawn) [I-1885, Ac-PL3-Asp-Cha-B5-Asn-Thr-Ala-Ala-Phe-Asn-PyrS2-3Thi-BztA-Gln-NH2] and CC(=O)N1CCC[C@]12CC=CCCCC1(CCCC=CCCCOC(=O)N3CC[C@@](C(=O)N[C@@H](Cc4ccsc4)C(=O)N[C@@H](Cc4csc5ccccc45)C(=O)N[C@@H](C)C(N)=O)(C3)NC(=O)[C@H](CC(N)=O)NC(=O)[C@H](Cc3ccccc3)NC(=O)[C@H](C)NC(=O)[C@H](C)NC(=O)[C@H]([C@@H](C)O)NC(=O)[C@H](CC(N)=O)NC1=O)NC(=O)[C@H](CC(C)(C)C)NC(=O)[C@H](CC(=O)O)NC2=O (stereo partly drawn) [I-2143, Ac-PL3-Asp-Npg-B5-Asn-Thr-Ala-Ala-Phe-Asn-PyrS2-3Thi-BztA-Ala-NH2] are within 1.5-fold of each other in IC50: 255 nM for the first, 217 nM for the second.

First: CC(=O)N1CCC[C@]12CCCCCCC1(CCCCCCCCOC(=O)N3CC[C@@](C(=O)N[C@@H](Cc4ccsc4)C(=O)N[C@@H](Cc4csc5ccccc45)C(=O)N[C@@H](Cc4cccc(C(N)=O)c4)C(N)=O)(C3)NC(=O)[C@H](CC(C)C)NC(=O)[C@H](Cc3ccccc3)NC(=O)[C@H](C)NC(=O)[C@H](C)NC(=O)[C@H](CN(CC(=O)O)CC(F)(F)F)NC(=O)[C@H](CC(=O)O)NC1=O)NC(=O)[C@H](CC(C)(C)C)NC(=O)[C@H](CC(=O)O)NC2=O (stereo partly drawn) [I-1718, Ac-PL3-Asp-Npg-B5-Asp-TfeGA-Ala-Ala-Phe-Leu-PyrS2-3Thi-BztA-3cbmf-NH2]
Second: CC(=O)N1CCC[C@]12CC=CCCCC1(CCCC=CCCCCOC(=O)N3CC(C(=O)N[C@@H](Cc4ccccc4C(F)(F)F)C(=O)N[C@@H](Cc4csc5ccccc45)C(=O)N[C@@H](CCC(N)=O)C(N)=O)(C3)NC(=O)[C@H](CC(C)C)NC(=O)[C@H](Cc3ccccc3)NC(=O)[C@H](C)NC(=O)[C@H](C)NC(=O)[C@H](Cc3cccc(C(=O)O)c3)NC(=O)[C@H](CC(=O)O)NC1=O)NC(=O)[C@H](CC(C)(C)C)NC(=O)[C@H](CC(=O)O)NC2=O (stereo partly drawn) [I-2611, Ac-PL3-Asp-Npg-B5-Asp-3COOHF-Ala-Ala-Phe-Leu-Az3-2F3MeF-BztA-Gln-NH2]
The IC50 of the first is 2-fold higher: 382 nM for the first, 188 nM for the second.

Compared with CC(=O)N1CCC[C@]12CCCCCCC1(CCCCCCCCOC(=O)N3CC[C@@](C(=O)N[C@@H](Cc4ccsc4)C(=O)N[C@@H](Cc4csc5ccccc45)C(=O)N[C@@H](CCC(N)=O)C(N)=O)(C3)NC(=O)[C@H](CC(C)C)NC(=O)[C@H](Cc3ccccc3)NC(=O)[C@H](C)NC(=O)[C@H](CCO)NC(=O)[C@H](CCC(N)=O)NC(=O)[C@H](CC(=O)O)NC1=O)NC(=O)[C@H](CC1CCCCC1)NC(=O)[C@H](CC(N)=O)NC2=O (stereo partly drawn) [I-2451, Ac-PL3-Asn-Cha-B5-Asp-Gln-Hse-Ala-Phe-Leu-PyrS2-3Thi-BztA-Gln-NH2], CC(=O)N1CCC[C@]12CC=CCCCC1(CCCC=CCCCOC(=O)N3CC[C@@](C(=O)N[C@@H](Cc4cccc(C(N)=O)c4)C(=O)N[C@@H](Cc4csc5ccccc45)C(=O)N[C@@H](CCO)C(N)=O)(C3)NC(=O)[C@H](CC(C)C)NC(=O)[C@H](Cc3ccccc3)NC(=O)[C@H](C)NC(=O)[C@H](CCCCNC(C)C)NC(=O)[C@H](CCC(N)=O)NC(=O)[C@H](CC(=O)O)NC1=O)NC(=O)[C@H](CC1CCCCC1)NC(=O)[C@H](CC(N)=O)NC2=O (stereo partly drawn) [I-2166, Ac-PL3-Asn-Cha-B5-Asp-Gln-iPrLys-Ala-Phe-Leu-PyrS2-3cbmf-BztA-Hse-NH2] is 3.1-fold lower in IC50: 4860 nM for the first, 1590 nM for the second.

First: CC(=O)N1CCC[C@]12CC=CCCCC1(CCCC=CCCCOC(=O)N3CC[C@@](C(=O)N[C@@H](Cc4ccsc4)C(=O)N[C@@H](Cc4cn(C)c5ccccc45)C(=O)N[C@@H](CO)C(N)=O)(C3)NC(=O)[C@H](CC(C)C)NC(=O)[C@H](Cc3ccccc3)NC(=O)[C@H](C)NC(=O)[C@H](C)NC(=O)[C@H](CC(=O)O)NC(=O)[C@H](CC(=O)O)NC1=O)NC(=O)[C@H](CC(C)(C)C)NC(=O)[C@H](CC(=O)O)NC2=O (stereo partly drawn) [I-1434, Ac-PL3-Asp-Npg-B5-Asp-Asp-Ala-Ala-Phe-Leu-PyrS2-3Thi-1MeW-Ser-NH2]
Second: CC(=O)N1CCC[C@]12CC=CCCCC1(CCCC=CCCCOC(=O)N3CC[C@@](C(=O)N[C@@H](Cc4ccsc4)C(=O)N[C@@H](Cc4csc5ccccc45)C(=O)N[C@@H](Cc4c[nH]cn4)C(N)=O)(C3)NC(=O)[C@H]([C@@H](C)O)NC(=O)[C@H](Cc3ccccc3)NC(=O)[C@H](C)NC(=O)[C@H](C)NC(=O)[C@H]([C@@H](C)O)NC(=O)[C@H](CC(N)=O)NC1=O)NC(=O)[C@H](CC(C)(C)C)NC(=O)[C@H](CC(=O)O)NC2=O (stereo partly drawn) [I-2337, Ac-PL3-Asp-Npg-B5-Asn-Thr-Ala-Ala-Phe-Thr-PyrS2-3Thi-BztA-His-NH2]
The IC50 of the first is 3.7-fold lower: 83 nM for the first, 311 nM for the second. The first is the more potent here.

Compared with CC(=O)N1CCC[C@]12CC=CCCCC1(CCCC=CCCCOC(=O)N3CC[C@@](C(=O)N[C@@H](Cc4ccsc4)C(=O)N[C@@H](Cc4csc5ccccc45)C(=O)N[C@@H](CCC(N)=O)C(N)=O)(C3)NC(=O)[C@H](CCO)NC(=O)[C@H](Cc3cccc(C(=O)O)c3)NC(=O)[C@H](C)NC(=O)[C@H](C)NC(=O)[C@H](Cc3ccc(O)cc3)NC(=O)[C@H](CC(=O)O)NC1=O)NC(=O)[C@H](CC(C)(C)C)NC(=O)[C@H](CC(=O)O)NC2=O (stereo partly drawn) [I-2124, Ac-PL3-Asp-Npg-B5-Asp-Tyr-Ala-Ala-3COOHF-Hse-PyrS2-3Thi-BztA-Gln-NH2], CC(C)C[C@H](NC(=O)[C@]12CCN(C1)C(=O)OCCCCCCCCC1(CCCCCCC(=O)N3CCC[C@@]3(C)C(=O)N[C@@H](CC(=O)O)C(=O)N1)C(=O)N[C@@H](C)C(=O)N[C@@H](CC(=O)O)C(=O)N[C@@H](CC(=O)O)C(=O)N[C@@H](C)C(=O)N[C@@H](C)C(=O)N[C@@H](Cc1ccccc1)C(=O)N2)C(=O)N[C@@H](Cc1ccsc1)C(=O)N[C@@H](Cc1csc2ccccc12)C(=O)N[C@@H](CCC(N)=O)C(N)=O (stereo partly drawn) [I-2608, 3butenyl-MePro-Asp-B5-Ala-Asp-Asp-Ala-Ala-Phe-PyrS2-Leu-3Thi-BztA-Gln-NH2] is 8.7-fold higher in IC50: 29 nM for the first, 251 nM for the second. The first is the more potent here.
